Measurements taken from ChEMBL document CHEMBL4665643 (Bioorg Med Chem Lett, 2019).

Key:
[1] = target: Tyrosine-protein kinase JAK2 (Homo sapiens, UniProt O60674)
Description: Inhibition of recombinant human JAK2 (812 to 1132 residues) expressed in insect cells using Y1-B as substrate incubated for 30 mins by microfluidic mobility shift assay

[2] = target: Janus Kinase (JAK) (Homo sapiens, UniProt P52333+P23458+O60674+P29597); conditions: beas-2b
Description: Inhibition of JAK in human BEAS-2B cells assessed as reduction in IL13-induced STAT6 phosphorylation incubated for 1 hr followed by IL13 addition and measured after 15 mins by immunofluorescence assay

[3] = target: T1, Tyrosine-protein kinase JAK1 (Homo sapiens, UniProt P23458); experiment: biochemical
Description: Inhibition of recombinant human JAK1 (854 to 1154 residues) expressed in insect cells using Y1-B as substrate incubated for 30 mins by microfluidic mobility shift assay

[4] = in vitro; conditions: dog, MDCK
Description: Apparent permeability across apical to basolateral side in MDCK cells at 10 uM incubated upto 180 mins by LC/MS-MS analysis

[5] = in vitro; conditions: dog, MDCK; remark: listed apart in the source
Description: Efflux ratio of apparent permeability basolateral to apical over apical to basolateral side in MDCK cells at 10 uM incubated upto 180 mins by LC/MS-MS analysis

[6] = Metabolic stability in human liver microsomes assessed as intrinsic clearance at 1 uM measured upto 60 mins by LC-MS/MS analysis; format: ADME, Microsome; conditions: read-out: CLH
[7] = target: LRRK2 (Homo sapiens, UniProt Q5S007); experiment: Inhibition of recombinant human GST-tagged LRRK2 (970 to 2527 residues) expressed in baculovirus expression system using LRRKtide as substrate at 0.1 uM incubated for 60 mins by Adapta assay relative to control; conditions: probe LRRKtide
[8] = Lipophilicity, logD of compound; format: physicochemical; conditions: octanol/water
[9] = species on record: Homo sapiens
[10] = target: Leucine-rich repeat serine/threonine-protein kinase 2 (Homo sapiens, UniProt Q5S007); experiment: Inhibition of recombinant human GST-tagged LRRK2 (970 to 2527 residues) expressed in baculovirus expression system using LRRKtide as substrate incubated for 60 mins by Adapta assay
[11] = target: T1, Tyrosine-protein kinase JAK1

Chain of Tyrosine-protein kinase JAK2 (O60674 whole entry): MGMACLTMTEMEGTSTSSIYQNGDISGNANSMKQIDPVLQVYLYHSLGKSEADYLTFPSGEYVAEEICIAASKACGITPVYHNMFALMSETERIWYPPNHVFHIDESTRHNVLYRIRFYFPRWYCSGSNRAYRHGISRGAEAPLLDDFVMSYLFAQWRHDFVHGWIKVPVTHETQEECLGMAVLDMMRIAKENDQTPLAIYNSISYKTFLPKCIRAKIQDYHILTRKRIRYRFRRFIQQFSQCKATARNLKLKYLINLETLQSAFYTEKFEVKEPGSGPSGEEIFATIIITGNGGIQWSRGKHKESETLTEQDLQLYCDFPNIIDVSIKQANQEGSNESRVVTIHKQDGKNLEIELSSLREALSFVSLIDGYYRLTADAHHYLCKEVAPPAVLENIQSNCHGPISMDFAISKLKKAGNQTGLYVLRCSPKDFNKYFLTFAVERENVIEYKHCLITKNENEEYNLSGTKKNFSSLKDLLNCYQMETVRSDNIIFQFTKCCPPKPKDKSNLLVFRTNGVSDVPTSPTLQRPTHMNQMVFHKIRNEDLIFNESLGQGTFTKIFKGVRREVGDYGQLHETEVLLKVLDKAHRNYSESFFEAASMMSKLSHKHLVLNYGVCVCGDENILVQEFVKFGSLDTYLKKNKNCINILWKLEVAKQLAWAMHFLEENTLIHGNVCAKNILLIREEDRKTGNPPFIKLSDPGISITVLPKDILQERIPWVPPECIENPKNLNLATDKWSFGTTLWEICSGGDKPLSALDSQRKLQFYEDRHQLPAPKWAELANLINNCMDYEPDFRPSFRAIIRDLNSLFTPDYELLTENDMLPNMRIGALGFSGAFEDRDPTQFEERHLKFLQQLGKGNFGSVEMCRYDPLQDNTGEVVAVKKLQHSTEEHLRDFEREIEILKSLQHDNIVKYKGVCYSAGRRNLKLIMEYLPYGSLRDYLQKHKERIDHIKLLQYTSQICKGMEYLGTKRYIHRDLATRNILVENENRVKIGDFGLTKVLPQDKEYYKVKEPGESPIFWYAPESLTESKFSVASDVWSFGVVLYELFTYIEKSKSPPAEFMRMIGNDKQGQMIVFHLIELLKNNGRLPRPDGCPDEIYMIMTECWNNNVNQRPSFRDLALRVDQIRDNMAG
T1 sequence (P23458 whole entry): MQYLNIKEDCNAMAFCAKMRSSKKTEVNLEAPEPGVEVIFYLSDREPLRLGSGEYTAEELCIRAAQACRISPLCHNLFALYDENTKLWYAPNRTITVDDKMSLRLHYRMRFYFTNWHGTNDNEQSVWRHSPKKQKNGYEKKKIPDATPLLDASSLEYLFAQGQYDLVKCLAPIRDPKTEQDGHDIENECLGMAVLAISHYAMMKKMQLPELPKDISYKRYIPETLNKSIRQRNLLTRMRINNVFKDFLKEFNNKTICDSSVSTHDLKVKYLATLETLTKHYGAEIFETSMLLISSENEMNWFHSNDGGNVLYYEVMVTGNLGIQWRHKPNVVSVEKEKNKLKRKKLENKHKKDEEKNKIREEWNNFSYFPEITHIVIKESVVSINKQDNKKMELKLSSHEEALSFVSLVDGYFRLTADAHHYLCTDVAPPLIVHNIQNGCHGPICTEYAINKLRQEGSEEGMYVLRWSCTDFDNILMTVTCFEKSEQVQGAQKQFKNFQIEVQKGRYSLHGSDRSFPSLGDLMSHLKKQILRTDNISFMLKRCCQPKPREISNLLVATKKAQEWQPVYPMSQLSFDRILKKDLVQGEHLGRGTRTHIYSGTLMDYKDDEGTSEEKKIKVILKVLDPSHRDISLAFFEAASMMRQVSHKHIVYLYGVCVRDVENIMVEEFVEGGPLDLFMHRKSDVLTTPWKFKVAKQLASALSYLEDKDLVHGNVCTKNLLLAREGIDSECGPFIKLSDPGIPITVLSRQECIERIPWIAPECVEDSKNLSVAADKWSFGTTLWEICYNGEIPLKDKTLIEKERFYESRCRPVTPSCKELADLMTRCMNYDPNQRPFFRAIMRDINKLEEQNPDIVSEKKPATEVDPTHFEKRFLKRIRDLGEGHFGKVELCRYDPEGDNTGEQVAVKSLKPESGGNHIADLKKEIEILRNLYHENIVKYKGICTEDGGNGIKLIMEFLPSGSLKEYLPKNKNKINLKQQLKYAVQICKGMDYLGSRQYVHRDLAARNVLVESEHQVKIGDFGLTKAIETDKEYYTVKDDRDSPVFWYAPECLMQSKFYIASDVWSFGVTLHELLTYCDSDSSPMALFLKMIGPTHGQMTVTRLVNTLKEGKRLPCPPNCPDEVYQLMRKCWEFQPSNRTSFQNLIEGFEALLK
Chain of LRRK2 (Q5S007 whole entry, the tested form may be a part): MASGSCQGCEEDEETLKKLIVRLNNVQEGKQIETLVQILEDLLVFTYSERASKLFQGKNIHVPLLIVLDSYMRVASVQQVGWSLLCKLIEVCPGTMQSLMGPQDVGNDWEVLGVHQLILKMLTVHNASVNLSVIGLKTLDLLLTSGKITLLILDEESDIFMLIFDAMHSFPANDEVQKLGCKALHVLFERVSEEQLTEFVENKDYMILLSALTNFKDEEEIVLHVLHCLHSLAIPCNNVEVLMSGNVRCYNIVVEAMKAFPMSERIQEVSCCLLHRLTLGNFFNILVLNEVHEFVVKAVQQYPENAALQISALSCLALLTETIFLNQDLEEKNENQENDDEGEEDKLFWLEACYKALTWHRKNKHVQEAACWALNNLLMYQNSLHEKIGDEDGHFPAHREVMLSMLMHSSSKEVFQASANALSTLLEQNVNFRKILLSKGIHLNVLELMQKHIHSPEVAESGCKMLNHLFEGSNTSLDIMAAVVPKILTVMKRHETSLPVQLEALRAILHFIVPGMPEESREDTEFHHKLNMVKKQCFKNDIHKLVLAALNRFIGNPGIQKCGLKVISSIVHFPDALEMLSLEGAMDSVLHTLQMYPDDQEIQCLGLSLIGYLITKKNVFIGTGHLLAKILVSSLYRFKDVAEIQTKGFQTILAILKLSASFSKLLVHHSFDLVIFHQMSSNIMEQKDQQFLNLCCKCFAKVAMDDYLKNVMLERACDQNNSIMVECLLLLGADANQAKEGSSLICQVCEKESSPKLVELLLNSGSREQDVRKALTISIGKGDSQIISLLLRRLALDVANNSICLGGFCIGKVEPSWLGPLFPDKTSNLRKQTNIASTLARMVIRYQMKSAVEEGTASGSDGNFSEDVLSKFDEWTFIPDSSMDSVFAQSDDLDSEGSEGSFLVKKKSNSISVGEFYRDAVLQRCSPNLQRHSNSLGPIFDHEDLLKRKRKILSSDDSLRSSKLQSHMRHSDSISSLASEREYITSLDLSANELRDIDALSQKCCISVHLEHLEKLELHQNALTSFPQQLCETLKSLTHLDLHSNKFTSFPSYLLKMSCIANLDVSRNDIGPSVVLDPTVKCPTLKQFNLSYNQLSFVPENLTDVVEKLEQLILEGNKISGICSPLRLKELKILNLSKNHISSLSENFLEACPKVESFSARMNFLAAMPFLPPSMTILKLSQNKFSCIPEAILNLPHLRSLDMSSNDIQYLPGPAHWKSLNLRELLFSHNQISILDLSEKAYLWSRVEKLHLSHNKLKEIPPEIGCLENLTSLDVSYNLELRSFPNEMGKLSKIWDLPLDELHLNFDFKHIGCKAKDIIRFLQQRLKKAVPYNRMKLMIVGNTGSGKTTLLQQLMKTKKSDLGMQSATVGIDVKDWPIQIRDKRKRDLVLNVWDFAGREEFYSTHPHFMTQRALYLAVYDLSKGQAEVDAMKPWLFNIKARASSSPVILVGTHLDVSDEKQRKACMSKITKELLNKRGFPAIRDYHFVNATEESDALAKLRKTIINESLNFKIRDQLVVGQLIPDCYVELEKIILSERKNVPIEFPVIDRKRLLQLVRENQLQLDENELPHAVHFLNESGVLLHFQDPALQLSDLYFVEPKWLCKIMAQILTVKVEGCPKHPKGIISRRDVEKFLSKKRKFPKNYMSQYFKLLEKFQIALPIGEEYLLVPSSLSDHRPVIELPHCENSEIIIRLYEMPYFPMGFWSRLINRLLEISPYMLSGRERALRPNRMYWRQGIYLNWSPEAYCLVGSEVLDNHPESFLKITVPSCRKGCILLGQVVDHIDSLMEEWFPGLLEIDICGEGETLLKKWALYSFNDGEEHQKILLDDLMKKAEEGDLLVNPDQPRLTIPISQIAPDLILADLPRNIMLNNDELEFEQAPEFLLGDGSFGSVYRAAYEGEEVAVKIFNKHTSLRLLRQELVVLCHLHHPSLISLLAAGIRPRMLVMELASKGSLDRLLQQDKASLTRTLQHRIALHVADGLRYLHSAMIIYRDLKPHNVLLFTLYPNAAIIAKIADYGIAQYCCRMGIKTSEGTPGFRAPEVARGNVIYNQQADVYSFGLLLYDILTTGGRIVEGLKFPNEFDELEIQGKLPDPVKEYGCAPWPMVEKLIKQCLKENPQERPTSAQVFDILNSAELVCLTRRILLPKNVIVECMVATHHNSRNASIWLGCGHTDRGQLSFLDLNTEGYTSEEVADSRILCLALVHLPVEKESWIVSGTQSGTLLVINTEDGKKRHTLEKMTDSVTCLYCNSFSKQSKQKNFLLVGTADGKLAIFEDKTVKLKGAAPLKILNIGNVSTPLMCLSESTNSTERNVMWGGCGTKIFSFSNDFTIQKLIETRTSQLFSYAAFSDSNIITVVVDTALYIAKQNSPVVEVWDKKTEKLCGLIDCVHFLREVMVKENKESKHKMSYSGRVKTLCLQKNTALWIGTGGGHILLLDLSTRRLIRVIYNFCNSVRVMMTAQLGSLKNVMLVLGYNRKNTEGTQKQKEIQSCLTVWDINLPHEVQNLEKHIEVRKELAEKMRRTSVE
Chain of Leucine-rich repeat serine/threonine-protein kinase 2 (Q5S007 whole entry, the tested form may be a part): as above

Row | SMILES | Ki [1] [nM] | IC50 [2] [nM] | Ki [3] [nM] | other results
1 | C#Cc1ccc2ncc(C(=O)Nc3c[nH]nc3-c3cc(Cl)ccc3OC(F)F)n2n1 | 0.078 | 13 | – | –
2 | CCc1ccc(OC(F)F)c(-c2n[nH]cc2NC(=O)c2cnn3cccnc23)c1 | 0.19 | 13 | 0.53 | –
3 | C[C@@H](O)c1nc2cnc3[nH]ccc3c2n1[C@H]1CCCOC1 | – | 210 | 2.9 | Papp A→B at 3 h, 10 µM [4]: 6.2 ×10⁻⁶ cm/s; efflux ratio at 3 h, 10 µM [5]: 0.81
4 | COc1c(F)cc(Cl)cc1-c1n[nH]cc1NC(=O)c1cnn2cccnc12 | 1.2 | – | 9.2 | –
5 | COc1ccc(Cl)cc1-c1nn(C)cc1NC(=O)c1cncc2[nH]cnc12 | 2.6 | – | 5.7 | –
6 | O=C(Nc1c[nH]nc1-c1cc(Br)ccc1OC(F)F)c1cnn2cccnc12 | 0.047 | 3.3 | 0.12 | Papp A→B at 3 h, 10 µM [4]: 17 ×10⁻⁶ cm/s; CLint scaled at 1 µM [6]: 15 mL/min/kg; efflux ratio at 3 h, 10 µM [5]: 1.2; inhibition at 1 h, 0.1 µM [7]: 86%; logD [8]: 3.2
7 | O=C(Nc1c[nH]nc1-c1cc(Cl)ccc1OC(F)F)c1cncc2c[nH]nc12 | 0.49 | 18 | 0.56 | Ratio IC50 [9]: 41; IC50 [10]: 79 nM; Papp A→B at 3 h, 10 µM [4]: 9.5 ×10⁻⁶ cm/s; IC50 [11]: 1.9 nM; CLint scaled at 1 µM [6]: 15 mL/min/kg; efflux ratio at 3 h, 10 µM [5]: 1.9; inhibition at 1 h, 0.1 µM [7]: 52%; logD [8]: 2.7
8 | Cn1cc(NC(=O)c2cnn3cccnc23)c(-c2cc(Cl)ccc2Cl)n1 | – | – | – | Papp A→B at 3 h, 10 µM [4]: 20 ×10⁻⁶ cm/s; logD [8]: 2.9
9 | O=C(Nc1c[nH]nc1-c1c(OC(F)F)ccc(Cl)c1F)c1cnn2cccnc12 | 0.16 | 14 | 0.56 | –
10 | Cn1cc(NC(=O)c2cnn3cccnc23)c(-c2cc(Cl)ccc2CO)n1 | 8.6 | – | 45 | –
11 | O=C(Nc1c[nH]nc1-c1cc(I)ccc1OC(F)F)c1cnn2cccnc12 | 0.045 | 2.8 | 0.15 | Papp A→B at 3 h, 10 µM [4]: 15 ×10⁻⁶ cm/s; CLint scaled at 1 µM [6]: 15 mL/min/kg; efflux ratio at 3 h, 10 µM [5]: 1; inhibition at 1 h, 0.1 µM [7]: 91%; logD [8]: 3.4
12 | O=C(Nc1c[nH]nc1-c1cc(Cl)ccc1OC(F)(F)F)c1cnn2cccnc12 | 0.49 | 64 | 2.1 | –
13 | O=C(Nc1c[nH]nc1-c1cc(F)ccc1OC(F)F)c1cnn2cccnc12 | 0.19 | 34 | 0.71 | –
14 | O=C(Nc1c[nH]nc1-c1cc(Cl)ccc1OC(F)F)c1snc2cccnc12 | 0.085 | 20 | 0.47 | –
15 | CCOc1ccc(Cl)cc1-c1n[nH]cc1NC(=O)c1cnn2cccnc12 | 0.8 | 54 | 1.4 | –
16 | COc1cc(O)c(Cl)cc1-c1n[nH]cc1NC(=O)c1cnn2cccnc12 | 0.16 | 140 | 0.31 | –
17 | COc1cc2[nH]ncc2cc1-c1n[nH]cc1NC(=O)c1cnn2cccnc12 | – | 370 | – | –
18 | Cn1cc(NC(=O)c2cnn3cccnc23)c(-c2cc(Cl)ccc2O)n1 | 13 | – | 32 | –
19 | Cn1cc(NC(=O)c2cnn3cccnc23)c(-c2cc(Cl)ccc2CCO)n1 | 4 | – | 12 | –
20 | N#Cc1ccc(OC(F)F)c(-c2n[nH]cc2NC(=O)c2cnn3cccnc23)c1 | 0.27 | 22 | 0.9 | –
21 | Cc1ccc(OC(F)F)c(-c2n[nH]cc2NC(=O)c2cnn3cccnc23)c1 | 0.34 | 27 | 1.4 | –
22 | CC[C@@H]1CN(C(=O)NCC(F)(F)F)C[C@@H]1c1cnc2cnc3[nH]ccc3n12 [UPADACITINIB] | – | – | – | Papp A→B at 3 h, 10 µM [4]: 3.6 ×10⁻⁶ cm/s
23 | O=C(Nc1c[nH]nc1-c1cc(Cl)ccc1OC(F)F)c1cnc2cccnn12 | 0.071 | 5 | 0.21 | –
24 | O=C(Nc1c[nH]nc1-c1cc(Cl)ccc1SC(F)F)c1cnn2cccnc12 | 0.23 | 26 | 0.85 | –
25 | CCn1c(C(=O)N(C2CC2)C2CC2)cc2c3c(ncn3C)c(Nc3cc(C)n(C)n3)nc21 [BMS-911543] | – | > 1000 | 360 | Papp A→B at 3 h, 10 µM [4]: 16 ×10⁻⁶ cm/s; efflux ratio at 3 h, 10 µM [5]: 0.94
26 | COc1cc(F)c(Cl)cc1-c1n[nH]cc1NC(=O)c1cnn2cccnc12 | 0.79 | 42 | 2.2 | –
27 | O=C(Nc1c[nH]nc1-c1cc(Cl)ccc1OC(F)F)c1cncc2ccoc12 | 0.5 | 36 | 1.8 | –

More lines, in order of falling Ki [3], values ahead:

Row | Ki [1] [nM] | IC50 [2] [nM] | Ki [3] [nM] | SMILES | other results
28 | 730 | – | 370 | COc1ccc(Cl)cc1-c1nn(C)cc1NC(=O)c1cncc2[nH]nnc12 | –
29 | 3.5 | > 1000 | 39 | Cn1ncc(NC(=O)c2cnn3cccnc23)c1-c1cc(Cl)ccc1Cl | –
30 | – | 1300 | 23 | Cc1cc(Nc2nccc3nc(-c4c(Cl)cc(C#N)cc4Cl)[nH]c23)ncn1 | Papp A→B at 3 h, 10 µM [4]: 16 ×10⁻⁶ cm/s; efflux ratio at 3 h, 10 µM [5]: 0.81
31 | 2 | – | 7.9 | CC(C)Oc1ccc(Cl)cc1-c1nn(C)cc1NC(=O)c1cnn2cccnc12 | –
32 | 2.4 | – | 7.8 | O=C(Nc1c[nH]nc1-c1cc(Cl)ccc1OC(F)F)c1cnn2cc(F)cnc12 | –
33 | 0.96 | 42 | 5.6 | O=C(Nc1c[nH]nc1-c1cc(Cl)ccc1OC(F)F)c1cnc2[nH]ccc2n1 | –
34 | 4.7 | 93 | 4.3 | COc1ccc(Cl)cc1-c1nn(C)cc1NC(=O)c1cncc2cn(C)nc12 | –
35 | 1.1 | – | 3.9 | Cc1nc(-c2cc(Cl)ccc2OC(F)F)c(NC(=O)c2cnn3cccnc23)[nH]1 | –
36 | 0.86 | – | 3.3 | O=C(Nc1c[nH]nc1-c1ccccc1OC(F)F)c1cnn2cccnc12 | –
37 | 0.62 | 38 | 1.9 | COc1ccc(Cl)cc1-c1nn(C)cc1NC(=O)c1cncc2cccnc12 | –
38 | 0.45 | 21 | 1.3 | O=C(Nc1c[nH]nc1-c1cc(Cl)ccc1OC1CC1)c1cnn2cccnc12 | –
39 | 0.45 | 58 | 0.99 | COc1ccc(Cl)cc1-c1nc(C)sc1NC(=O)c1cnn2cccnc12 | –
40 | 0.1 | 34 | 0.99 | Cc1ccn2ncc(C(=O)Nc3c[nH]nc3-c3cc(Cl)ccc3OC(F)F)c2n1 | –
41 | 0.29 | 15 | 0.95 | COc1ccc(Cl)c(F)c1-c1n[nH]cc1NC(=O)c1cnn2cccnc12 | –
42 | 0.28 | – | 0.91 | Cn1cc(NC(=O)c2cnn3cccnc23)c(-c2cc(Cl)ccc2C2CC2)n1 | –
43 | 0.36 | 23 | 0.89 | COc1ccc(Cl)cc1-c1n[nH]cc1NC(=O)c1cnn2cccnc12 | –
44 | 0.78 | 20 | 0.6 | COc1ccc(Cl)cc1-c1nn(C)cc1NC(=O)c1cncc2c[nH]nc12 | –
45 | 0.17 | 9.2 | 0.51 | O=C(Nc1c[nH]nc1-c1cc(Cl)ccc1OC(F)F)c1cncc2scnc12 | –
46 | 0.23 | 11 | 0.46 | CSc1ccc(Cl)cc1-c1nn(C)cc1NC(=O)c1cnn2cccnc12 | –
47 | 0.042 | 4 | 0.19 | Nc1nn2cccnc2c1C(=O)Nc1c[nH]nc1-c1cc(Cl)ccc1OC(F)F | Papp A→B at 3 h, 10 µM [4]: 15 ×10⁻⁶ cm/s; CLint scaled at 1 µM [6]: 11 mL/min/kg; efflux ratio at 3 h, 10 µM [5]: 0.83; inhibition at 1 h, 0.1 µM [7]: 99%; logD [8]: 3.3
48 | 0.057 | 36 | 0.11 | O=C(Nc1c[nH]nc1-c1cc(Cl)c(O)cc1OC(F)F)c1cnn2cccnc12 | –
49 | 0.052 | 40 | 0.075 | O=C(Nc1c[nH]nc1-c1cc2cn[nH]c2cc1OC(F)F)c1cnn2cccnc12 | Papp A→B at 3 h, 10 µM [4]: 1.6 ×10⁻⁶ cm/s; CLint scaled at 1 µM [6]: 4.4 mL/min/kg; efflux ratio at 3 h, 10 µM [5]: 1; inhibition at 1 h, 0.1 µM [7]: 89%; logD [8]: 1.6
